# Literature values as cited in patent publication US9932637B2, “Genetic polymorphisms associated with cardiovascular disorders and drug response, methods of detection and uses thereof” (CELERA CORPORATION, priority 2003, dated 2018).
# System: subjects with average cholesterol levels
# Conditions: AFCAPS/TexCAPS; cited from earlier work
smiles,measurement,value
CC[C@H](C)C(=O)O[C@H]1C[C@@H](C)C=C2C=C[C@H](C)[C@H](CC[C@@H]3C[C@@H](O)CC(=O)O3)[C@H]21 [lovastatin],LDL-C reduced (average),25%
same,events decreased,37%
